Reference: PubChem BioAssay (NCI)
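The compound was tested at five concentrations on cells cultured in 96-well plates, with a 48-hour exposure period. GI50: concentration for 50% inhibition of growth. Definition used: TGI = concentration required for complete inhibition of growth.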

Assays:
Test in all cases: NCI tumour cell line growth inhibition, 48 h
MDA-MB-435 = test system: MDA-MB-435
HT29 colon = test system: HT29 colon
SK-MEL-5 melanoma = test system: SK-MEL-5 melanoma
SN12C renal = test system: SN12C renal
786-0 renal = test system: 786-0 renal
M14 melanoma = test system: M14 melanoma
SK-OV-3 ovarian = test system: SK-OV-3 ovarian
SNB-75 CNS = test system: SNB-75 CNS
SR leukemia = test system: SR leukemia
HOP-92 NSCLC = test system: HOP-92 NSCLC

Row | SMILES | GI50 (MDA-MB-435) | TGI (MDA-MB-435) | GI50 (HT29 colon) | TGI (HT29 colon) | GI50 (SK-MEL-5 melanoma) | TGI (SK-MEL-5 melanoma) | GI50 (SN12C renal) | TGI (SN12C renal) | GI50 (786-0 renal) | TGI (786-0 renal) | GI50 (M14 melanoma) | TGI (M14 melanoma) | GI50 (SK-OV-3 ovarian) | TGI (SK-OV-3 ovarian) | GI50 (SNB-75 CNS) | TGI (SNB-75 CNS) | GI50 (SR leukemia) | TGI (SR leukemia) | GI50 (HOP-92 NSCLC) | TGI (HOP-92 NSCLC)
1 | CCC(Sc1nnc2c3ccccc3n(CC)c2n1)C(=O)Nc1ccccc1OC (centres undefined) | > 100 µM | > 100 µM | > 100 µM | > 100 µM | 60.8 µM | > 100 µM | 3.47 µM | > 100 µM | > 100 µM | > 100 µM | > 100 µM | > 100 µM | > 100 µM | > 100 µM | 10.8 µM | > 100 µM | > 100 µM | > 100 µM | 65.5 µM | > 100 µM
2 | CCC[C@H](N[C@@H]1CCc2cc(F)cc(F)c2C1)C(=O)Nc1cn(C(C)(C)CNCC(C)(C)C)cn1 | 17 µM | 53.2 µM | 11.7 µM | 30 µM | 12.2 µM | 24.8 µM | 24.8 µM | > 100 µM | 13.5 µM | 54.2 µM | 10.5 µM | 26.9 µM | 26.3 µM | > 100 µM | 3.68 µM | 64.8 µM | 14.2 µM | > 79 µM | 1.47 µM | 11.1 µM
3 | CC(C)=CCc1c(O)cc(/C=C/c2cc(O)c3c(c2)C[C@@H]2C(C)(C)[C@H](O)[C@H](O)C[C@@]2(C)O3)cc1O | 0.662 µM | 4.22 µM | 0.373 µM | 3.54 µM | 1.03 µM | 2.32 µM | 2.81 µM | > 10 µM | < 0.001 µM | > 6.26 µM | 0.548 µM | 4.02 µM | 0.264 µM | 3.73 µM | < 0.001 µM | 0.958 µM | < 0.001 µM | > 10 µM | 0.0104 µM | 2.6 µM
4 | CO[C@@H]1[C@@H](OC2OC(C)C(OC3CC(C)(O)C(OC(=O)CC(C)C)C(C)O3)C(N(C)C)C2O)[C@@H](CC=O)C[C@@H](C)C(=O)/C=C/C2O[C@H]2C[C@@H](C)OC(=O)C[C@H]1OC(C)=O (some centres undefined) | – | 45.2 µM | – | 26.4 µM | – | 32.9 µM | – | 46.2 µM | – | 50.2 µM | – | 30 µM | – | > 100 µM | – | > 100 µM | – | 42.4 µM | – | 27 µM
5 | CCCCCCCCCCCC(=O)OCC1OC(n2cc(F)c(=O)[nH]c2=O)C(N)C(OC(=O)CCCCCCCCCCC)C1O (centres undefined) | – | – | – | > 100 µM | – | 30.5 µM | – | > 100 µM | – | > 100 µM | – | > 100 µM | – | > 100 µM | – | > 100 µM | – | > 100 µM | – | 98.8 µM
6 | O=Cc1ccc(-c2ccc(-c3ccc(C=O)s3)o2)s1 | – | > 100 µM | – | > 100 µM | – | > 100 µM | – | > 100 µM | – | > 100 µM | – | > 100 µM | – | > 100 µM | – | 78.8 µM | – | > 100 µM | – | > 100 µM
7 | CN1C(=O)CNC(=O)[C@H](NC(=O)c2nc3ccccc3cc2O)CSSC[C@H]1C(=O)NCCc1nc2ccccc2cc1O | 2.5 µM | 35.8 µM | 3.12 µM | 16.4 µM | 3.05 µM | 12.7 µM | 22.4 µM | > 63.4 µM | 22.1 µM | 49 µM | 1.03 µM | 35.4 µM | > 100 µM | > 100 µM | 15 µM | 33.9 µM | 0.387 µM | 1.96 µM | > 100 µM | > 100 µM
8 | O=C(Nc1cc(C(F)(F)F)ccc1F)Nc1n[nH]c2ccccc12 | > 100 µM | > 100 µM | > 100 µM | > 100 µM | > 100 µM | > 100 µM | > 100 µM | > 100 µM | > 100 µM | > 100 µM | > 100 µM | > 100 µM | > 100 µM | > 100 µM | 40.1 µM | > 100 µM | 55.4 µM | > 100 µM | > 100 µM | > 100 µM
9 | O=C(Nc1ccc(Br)cc1)Nc1n[nH]c2ccccc12 | > 100 µM | > 100 µM | > 100 µM | > 100 µM | > 88.7 µM | > 100 µM | > 100 µM | > 100 µM | > 100 µM | > 100 µM | > 100 µM | > 100 µM | > 33.7 µM | > 100 µM | 34.4 µM | > 82.7 µM | 4.78 µM | > 100 µM | > 86.3 µM | > 100 µM
10 | CN1CCN(c2ccc3nc(-c4cc(C(C)(C)C)c(O)c(C(C)(C)C)c4)[nH]c3c2)CC1 | 1.73 µM | 3.16 µM | 2.1 µM | 4.41 µM | 1.76 µM | 3.17 µM | 4.64 µM | 16.5 µM | 1.82 µM | 3.5 µM | 1.68 µM | 3.37 µM | 8.83 µM | 21.8 µM | 1.42 µM | 3.65 µM | 2.45 µM | 8.58 µM | 1.82 µM | 6.4 µM
11 | Nc1cc(-c2ccccc2)ccc1O | > 100 µM | > 100 µM | > 100 µM | > 100 µM | > 100 µM | > 100 µM | 68.9 µM | > 100 µM | > 100 µM | > 100 µM | > 100 µM | > 100 µM | > 100 µM | > 100 µM | > 100 µM | > 100 µM | 33.9 µM | > 100 µM | > 100 µM | > 100 µM
12 | CS(=O)(=O)CCNCc1ccc(-c2ccc3ncnc(Nc4ccc(OCc5cccc(C(F)(F)F)c5)cc4)c3c2)o1 | 4.71 µM | 10.7 µM | 4.22 µM | 8.32 µM | 6.05 µM | > 13.5 µM | 7.81 µM | > 19.1 µM | 4.61 µM | 8.85 µM | 6.11 µM | 13.9 µM | 9.25 µM | > 25 µM | 8.21 µM | > 21.1 µM | 4.49 µM | 16.7 µM | 2.6 µM | 7.81 µM
13 | Cc1ccc(C)c(NC(=O)c2cc(-c3ccc([N+](=O)[O-])cc3)nc(N)n2)c1 | – | – | – | > 100 µM | – | > 100 µM | – | > 100 µM | – | > 100 µM | – | > 100 µM | – | > 100 µM | – | > 100 µM | – | > 100 µM | – | > 100 µM
14 | CCOC(=O)/N=C(\N)SCc1ccccc1 | – | – | – | > 100 µM | – | > 100 µM | – | > 100 µM | – | > 100 µM | – | > 100 µM | – | > 100 µM | – | > 100 µM | – | > 100 µM | – | > 100 µM
15 | COc1cc(CSc2nc3ccc(C)cc3c(=O)n2Cc2ccccc2)cc(OC)c1OC | 0.337 µM | 2.62 µM | 0.595 µM | 80.8 µM | 1.45 µM | 12.8 µM | 6.53 µM | > 100 µM | 7.49 µM | 65.6 µM | 3.08 µM | > 100 µM | 2.86 µM | 17.8 µM | 0.804 µM | 4.21 µM | 0.372 µM | 11.1 µM | 1.44 µM | 7.42 µM
16 | C=C1CC(CCCl)(c2ccccc2)OC1=O (centres undefined) | – | – | – | > 72.1 µM | – | > 100 µM | – | > 62.7 µM | – | 31.7 µM | – | 38.6 µM | – | > 100 µM | – | 71 µM | – | 52.6 µM | – | 34.2 µM
17 | Cc1c(C(=O)/C=C/c2ccc(Cl)cc2)[n+](=O)c2ccccc2n1[O-] | – | – | – | 28.2 µM | – | – | – | 23.3 µM | – | 27.4 µM | – | 31.5 µM | – | 47.6 µM | – | 40.7 µM | – | 73.1 µM | – | 37.7 µM
18 | CCCCCCCCCCCCCCCC(=O)OCC(O)C1OC(=O)C(O)=C1O (centres undefined) | – | 42.4 µM | – | 38.8 µM | – | > 100 µM | – | 96.9 µM | – | 38.8 µM | – | 36.2 µM | – | > 100 µM | – | 46 µM | – | > 100 µM | – | –
19 | O=C(CCC(=O)Nc1ccc(Cl)cc1)CC(=O)c1ccc(F)cc1 | – | – | – | > 100 µM | – | – | – | > 100 µM | – | > 100 µM | – | > 100 µM | – | > 100 µM | – | > 100 µM | – | > 100 µM | – | > 100 µM
20 | COc1ccc(O)c(C(=O)c2ccc(C(=O)O[C@@H]3CCCNC[C@H]3NC(=O)c3ccncc3)cc2)c1F | 1.9 µM | > 25 µM | 0.944 µM | > 25 µM | 0.541 µM | 3.15 µM | 1.34 µM | > 25 µM | 0.403 µM | > 25 µM | 1.2 µM | > 25 µM | 0.946 µM | > 25 µM | 0.0788 µM | > 7.51 µM | 0.146 µM | > 5.21 µM | – | –
21 | N=C(c1ccccc1)N(O)C1CCCCC1 | – | – | – | > 100 µM | – | > 100 µM | – | > 100 µM | – | > 100 µM | – | > 100 µM | – | – | – | > 100 µM | – | > 100 µM | – | > 100 µM
22 | O=C(COc1cccc(/C=C2\COc3ccccc3C2=O)c1)Nc1nccs1 | 2.51 µM | 7.53 µM | 1.94 µM | 3.72 µM | 5.27 µM | 19.5 µM | 2.08 µM | 5.25 µM | 2.05 µM | 4.14 µM | 1.85 µM | 3.71 µM | 17.4 µM | 31.1 µM | 12.2 µM | 24.6 µM | 1.03 µM | 2.76 µM | – | –
23 | O=C(OCCOCBr)c1ccccc1 | – | – | – | > 100 µM | – | > 100 µM | – | > 100 µM | – | > 100 µM | – | > 100 µM | – | > 100 µM | – | > 100 µM | – | > 100 µM | – | > 100 µM
